Measured values from US6586368B1, “Condensed heterocylic compounds and herbicides containing them” (Sumitomo Chemical Company, Limited, priority 1998, dated 2003).

How the values were obtained:
Assay type in all cases: in vivo
[1] = system: velvetleaf (Abutilon theophrasti); assay: Test Example 3: soil surface treatment, velvetleaf seeded in pots, herbicidal activity; settings: emulsifiable concentrate sprayed over the surface of the soil after seeding, dosage of 2000 g/ha, 1000 liters per hectare, examined after 9 days in greenhouse
[2] = system: velvetleaf (Abutilon theophrasti); assay: Test Example 1: foliage treatment of velvetleaf in pots, herbicidal activity; settings: emulsifiable concentrate sprayed over the foliage, dosage of 2000 g/ha, 1000 liters per hectare, plants 14 days after seeding, examined after 8 days in greenhouse
[3] = system: barnyardgrass (Echinochloa oryzicola); assay: Test Example 4: flooded paddy field treatment of barnyardgrass in pots, herbicidal activity; settings: emulsifiable concentrate applied on the water surface of flooded pots, dosage of 1000 g/ha, 50 liters per are, plants 12 days after seeding, examined after 9 days in greenhouse

Compound: Cn1c(C(F)(F)F)cc(=O)n(-c2coc3ccccc23)c1=O [Compound 1-1]
- herbicidal activity: germination of velvetleaf [1]: completely inhibited the germination
- herbicidal activity: growth of velvetleaf [2]: completely inhibited the growth
- herbicidal activity: growth of barnyardgrass [3]: completely inhibited the growth

Compound: Cn1c(C(F)(F)F)cc(=O)n(-c2coc3c(Cl)cc(Cl)cc23)c1=O [Compound 1-2, 3-(5,7-Dichlorobenzo[b]furan-3-yl)-1-methyl-6-(trifluoromethyl)-1,2,3,4-tetrahydropyrimidine-2,4-dione]
- herbicidal activity: germination of velvetleaf [1]: completely inhibited the germination
- herbicidal activity: growth of velvetleaf [2]: completely inhibited the growth
- herbicidal activity: growth of barnyardgrass [3]: completely inhibited the growth

Compound: Cn1c(C(F)(F)F)cc(=O)n(-c2csc3ccccc23)c1=O [Compound 1-3]
- herbicidal activity: germination of velvetleaf [1]: completely inhibited the germination
- herbicidal activity: growth of velvetleaf [2]: completely inhibited the growth
- herbicidal activity: growth of barnyardgrass [3]: completely inhibited the growth

Compound: Cn1c(C(F)(F)F)cc(=O)n(-c2coc3ccc(Cl)cc23)c1=O [Compound 1-4]
- herbicidal activity: germination of velvetleaf [1]: completely inhibited the germination
- herbicidal activity: growth of velvetleaf [2]: completely inhibited the growth
- herbicidal activity: growth of barnyardgrass [3]: completely inhibited the growth

Compound: COc1ccc2occ(-n3c(=O)cc(C(F)(F)F)n(C)c3=O)c2c1 [Compound 1-5, 3-(5-Methoxybenzo[b]furan-3-yl)-1-methyl-6-(trifluoromethyl)-1,2,3,4-tetrahydropyrimidine-2,4-dione]
- herbicidal activity: germination of velvetleaf [1]: completely inhibited the germination
- herbicidal activity: growth of velvetleaf [2]: completely inhibited the growth
- herbicidal activity: growth of barnyardgrass [3]: completely inhibited the growth

Compound: CNc1ccc2occ(-n3c(=O)cc(C(F)(F)F)n(C)c3=O)c2c1 [Compound 1-8]
- herbicidal activity: germination of velvetleaf [1]: completely inhibited the germination
- herbicidal activity: growth of velvetleaf [2]: completely inhibited the growth
- herbicidal activity: growth of barnyardgrass [3]: completely inhibited the growth

Compound: CN(C)c1ccc2occ(-n3c(=O)cc(C(F)(F)F)n(C)c3=O)c2c1 [Compound 1-9]
- herbicidal activity: germination of velvetleaf [1]: completely inhibited the germination
- herbicidal activity: growth of velvetleaf [2]: completely inhibited the growth
- herbicidal activity: growth of barnyardgrass [3]: completely inhibited the growth

Compound: Cn1c(C(F)(F)F)cc(=O)n(-c2coc3ccc(NS(C)(=O)=O)cc23)c1=O [Compound 1-10]
- herbicidal activity: germination of velvetleaf [1]: completely inhibited the germination
- herbicidal activity: growth of velvetleaf [2]: completely inhibited the growth
- herbicidal activity: growth of barnyardgrass [3]: completely inhibited the growth

Compound: CCOC(=O)C(C)Nc1ccc2occ(-n3c(=O)cc(C(F)(F)F)n(C)c3=O)c2c1 (stereo not drawn) [Compound 1-11]
- herbicidal activity: germination of velvetleaf [1]: completely inhibited the germination
- herbicidal activity: growth of velvetleaf [2]: completely inhibited the growth
- herbicidal activity: growth of barnyardgrass [3]: completely inhibited the growth

Compound: CC(=O)Nc1ccc2occ(-n3c(=O)cc(C(F)(F)F)n(C)c3=O)c2c1 [Compound 1-24]
- herbicidal activity: germination of velvetleaf [1]: completely inhibited the germination
- herbicidal activity: growth of velvetleaf [2]: completely inhibited the growth

Compound: CC(=O)N(C)c1ccc2occ(-n3c(=O)cc(C(F)(F)F)n(C)c3=O)c2c1 [Compound 1-28]
- herbicidal activity: germination of velvetleaf [1]: completely inhibited the germination
- herbicidal activity: growth of velvetleaf [2]: completely inhibited the growth

Compound: Cn1c(C(F)(F)F)cc(=O)n(-c2coc3ccc(Br)cc23)c1=O [Compound 1-75]
- herbicidal activity: germination of velvetleaf [1]: completely inhibited the germination
- herbicidal activity: growth of velvetleaf [2]: completely inhibited the growth
- herbicidal activity: growth of barnyardgrass [3]: completely inhibited the growth

Compound: Cn1c(C(F)(F)F)cc(=O)n(-c2coc3cc([N+](=O)[O-])c(O)cc23)c1=O [Compound 1-82]
- herbicidal activity: germination of velvetleaf [1]: completely inhibited the germination
- herbicidal activity: growth of velvetleaf [2]: completely inhibited the growth
- herbicidal activity: growth of barnyardgrass [3]: completely inhibited the growth

Compound: COc1cc2c(-n3c(=O)cc(C(F)(F)F)n(C)c3=O)coc2cc1Cl [Compound 1-84, 3-(6-Chloro-5-methoxybenzo[b]furan-3-yl)-1-methyl-6-(trifluoromethyl)-1,2,3,4-tetrahydropyrimidine-2,4-dione]
- herbicidal activity: germination of velvetleaf [1]: completely inhibited the germination
- herbicidal activity: growth of velvetleaf [2]: completely inhibited the growth
- herbicidal activity: growth of barnyardgrass [3]: completely inhibited the growth

Compound: COc1cc2c(-n3c(=O)cc(C(F)(F)F)n(C)c3=O)coc2cc1[N+](=O)[O-] [Compound 1-86, 3-(5-Methoxy-6-nitrobenzo[b]furan-3-yl)-1-methyl-6-(trifluoromethyl)-1,2,3,4-tetrahydropyrimidine-2,4-dione]
- herbicidal activity: germination of velvetleaf [1]: completely inhibited the germination
- herbicidal activity: growth of velvetleaf [2]: completely inhibited the growth
- herbicidal activity: growth of barnyardgrass [3]: completely inhibited the growth

Compound: CCOC(=O)C(C)Oc1ccc2occ(-n3c(=O)cc(C(F)(F)F)n(C)c3=O)c2c1 (stereo not drawn) [Compound 1-127, Ethyl 2-({3-[3-methyl-2,6-dioxo-4-(trifluoromethyl)-1,2,3,6-tetrahydropyrimidin-1-yl]benzo[b]furan-5-yl}oxy)propanoate]
- herbicidal activity: germination of velvetleaf [1]: completely inhibited the germination
- herbicidal activity: growth of velvetleaf [2]: completely inhibited the growth
- herbicidal activity: growth of barnyardgrass [3]: completely inhibited the growth

Compound: CCOC(=O)C(C)Oc1cc2c(-n3c(=O)cc(C(F)(F)F)n(C)c3=O)coc2cc1Cl (stereo not drawn) [Compound 1-129, Ethyl 2-({6-chloro-3-[3-methyl-2,6-dioxo-4-(trifluoromethyl)-1,2,3,6-tetrahydropyrimidin-1-yl]benzo[b]furan-5-yl}oxy)propanoate]
- herbicidal activity: germination of velvetleaf [1]: completely inhibited the germination
- herbicidal activity: growth of velvetleaf [2]: completely inhibited the growth
- herbicidal activity: growth of barnyardgrass [3]: completely inhibited the growth

Compound: CCOC(=O)C(C)Oc1cc2c(-n3c(=O)cc(C(F)(F)F)n(C)c3=O)coc2cc1[N+](=O)[O-] (stereo not drawn) [Compound 1-131]
- herbicidal activity: germination of velvetleaf [1]: completely inhibited the germination
- herbicidal activity: growth of velvetleaf [2]: completely inhibited the growth
- herbicidal activity: growth of barnyardgrass [3]: completely inhibited the growth

Compound: CSc1cc2c(-n3c(=O)cc(C(F)(F)F)n(C)c3=O)coc2cc1[N+](=O)[O-] [Compound 1-201, 1-Methyl-3-[5-(methylthio)-6-nitrobenzo[b]furan-3-yl]-6-(trifluoromethyl)-1,2,3,4-tetrahydropyrimidine-2,4-dione]
- herbicidal activity: germination of velvetleaf [1]: completely inhibited the germination
- herbicidal activity: growth of velvetleaf [2]: completely inhibited the growth
- herbicidal activity: growth of barnyardgrass [3]: completely inhibited the growth

Compound: CCOC(=O)C(C)Sc1cc2c(-n3c(=O)cc(C(F)(F)F)n(C)c3=O)coc2cc1[N+](=O)[O-] (stereo not drawn) [Compound 1-246, Ethyl 2-({3-[3-methyl-2,6-dioxo-4-(trifluoromethyl)-1,2,3,6-tetrahydropyrimidin-1-yl]-6-nitrobenzo[b]furan-5-yl}thio)propanoate]
- herbicidal activity: germination of velvetleaf [1]: completely inhibited the germination
- herbicidal activity: growth of velvetleaf [2]: completely inhibited the growth
- herbicidal activity: growth of barnyardgrass [3]: completely inhibited the growth

Compound: Cn1c(C(F)(F)F)cc(=O)n(-c2coc3cc([N+](=O)[O-])ccc23)c1=O [Compound 1-282]
- herbicidal activity: germination of velvetleaf [1]: completely inhibited the germination
- herbicidal activity: growth of velvetleaf [2]: completely inhibited the growth
- herbicidal activity: growth of barnyardgrass [3]: completely inhibited the growth

Compound: Cn1c(C(F)(F)F)cc(=O)n(-c2coc3ccc(C(N)=O)cc23)c1=O [Compound 1-293]
- herbicidal activity: germination of velvetleaf [1]: completely inhibited the germination
- herbicidal activity: growth of velvetleaf [2]: completely inhibited the growth
- herbicidal activity: growth of barnyardgrass [3]: completely inhibited the growth

Compound: COC(=O)c1ccc2occ(-n3c(=O)cc(C(F)(F)F)n(C)c3=O)c2c1 [Compound 1-303, Methyl 3-[3-methyl-2,6-dioxo-4-(trifluoromethyl)-1,2,3,6-tetrahydropyrimidin-1-yl]benzo[b]furan-5-carboxylate]
- herbicidal activity: germination of velvetleaf [1]: completely inhibited the germination
- herbicidal activity: growth of velvetleaf [2]: completely inhibited the growth
- herbicidal activity: growth of barnyardgrass [3]: completely inhibited the growth

Compound: Cc1cc(Cl)c2occ(-n3c(=O)cc(C(F)(F)F)n(C)c3=O)c2c1 [Compound 1-358]
- herbicidal activity: germination of velvetleaf [1]: completely inhibited the germination
- herbicidal activity: growth of velvetleaf [2]: completely inhibited the growth
- herbicidal activity: growth of barnyardgrass [3]: completely inhibited the growth

Compound: Cc1cc2c(-n3c(=O)cc(C(F)(F)F)n(C)c3=O)coc2cc1[N+](=O)[O-] [Compound 1-361]
- herbicidal activity: germination of velvetleaf [1]: completely inhibited the germination
- herbicidal activity: growth of velvetleaf [2]: completely inhibited the growth
- herbicidal activity: growth of barnyardgrass [3]: completely inhibited the growth

Compound: CCOC(=O)C=Cc1cc(Cl)c2occ(-n3c(=O)cc(C(F)(F)F)n(C)c3=O)c2c1 [Compound 1-378]
- herbicidal activity: germination of velvetleaf [1]: completely inhibited the germination
- herbicidal activity: growth of velvetleaf [2]: completely inhibited the growth
- herbicidal activity: growth of barnyardgrass [3]: completely inhibited the growth

Compound: Cn1c(C(F)(F)F)cc(=O)n(-c2csc3cc(Cl)ccc23)c1=O [Compound 1-864]
- herbicidal activity: growth of barnyardgrass [3]: completely inhibited the growth

Compound: O=C1C2=C(CCCC2)C(=O)N1c1noc2ccccc12 [Compound 2-4]
- herbicidal activity: growth of velvetleaf [2]: completely inhibited the growth
